Experimental data published in patent US20100204109A1, “USE OF C-TYPE NATRIURETIC PEPTIDE, ALONE OR IN COMBINATION WITH NEUROPEPTIDE AF, AS A THERAPEUTIC AGENT” (priority 2007, published 2010).
Ends that are not written are not given here.

Key:
[1] = tested on: HIV-1IIIB
[2] = tested on: HCMV strain AD169; experiment: HCMV plaque formation assay in MRC-5 cells; settings: for inhibition of HCMV plaque formation as compared to the virus control experiment: 10 micrograms per ml, MRC-5 cells, 7-10 days
[3] = tested on: HUVEC; experiment: Endothelial tube formation assay; type: cell-based, human; settings: 10 micrograms per ml, 20 hours, average tubule length
Description: Positive control was vehicle only. […] Raw data were expressed as average tubule lenghs in pixels±standard deviation.

[4] = tested on: spleen cells of Ovalbumin-immunized Balb/c mice; experiment: Th1/Th2 cytokine profiling assay; type: cell-based, mouse; settings: 10 micrograms per ml; Ovalbumin restimulation; 72 hours supernatant
Description: Results from Th1/Th2 Cytokine assay:

[5] = tested on: hepatitis B virus (HBV) ayw strain; experiment: HBV experimental assay system, HepG2-2.2.15, secreted HBV DNA by TaqMan PCR; type: cell-based; settings: 10 micrograms per ml, six days, HBV DNA in supernatant

Molecule | antiviral activity of positive control compounds [1] | inhibition of the tube formation of human endothelial cells [3] | inhibition of HCMV plaque formation as compared to the virus control experiment [2] | inhibition of HBV replication as compared to the virus control infection [5] [%] | other results
Cc1cn([C@H]2C[C@H](N=[N+]=[N-])[C@@H](CO)O2)c(=O)[nH]c1=O [AZT] | expected levels of antiviral activity |  |  |  | 
Nc1nc(O)c2ncn(COC(CO)CO)c2n1 [Ganciclovir, reference compound] |  |  |  |  | antiviral activity of positive control compound ([2]; positive control, HCMV AD169 in MRC-5 cells): expected levels of antiviral activity
CC(C)(C)NC(=O)[C@@H]1CN(Cc2cccnc2)CCN1C[C@@H](O)C[C@@H](Cc1ccccc1)C(=O)N[C@H]1c2ccccc2C[C@H]1O [indinavir] | expected levels of antiviral activity |  |  |  | 
Ala-Gly-Glu-Gly-Leu-Asn-Ser-Gln-Phe-Trp-Ser-Leu-Ala-Ala-Pro-Gln-Arg-Phe-NH2 (AGEGLNSQFWSLAAPQRF-NH2) [Peptide 2] |  | did not inhibit | did not inhibit | 42.6 | IFNγ spleen cells; TH1 response (% of control) [4]: 84.8 % of control; IL-2 spleen cells (% of control) [4]: 0.0 % of control; IL-4 spleen cells; TH2 response (% of control) [4]: 0.0 % of control; IL-5 spleen cells; TH2 response (% of control) [4]: 52.2 % of control; TNF-a spleen cells; TH1 response (% of control) [4]: 92.1 % of control
Asp-Leu-Arg-Val-Asp-Thr-Lys-Ser-Arg-Ala-Ala-Trp-Ala-Arg-Leu-Leu-Gln-Glu-His-Pro-Asn-Ala-Arg-Lys-Tyr-Lys-Gly-Ala-Asn-Lys-Lys-Gly-Leu-Ser-Lys-Gly-Cys-Phe-Gly-Leu-Lys-Leu-Asp-Arg-Ile-Gly-Ser-Met-Ser-Gly-Leu-Gly-Cys-OH (DLRVDTKSRAAWARLLQEHPNARKYKGANKKGLSKGCFGLKLDRIGSMSGLGC-OH; cysteine pairing not given here) [Peptide 1] |  | 34% | did not inhibit | 65.7 | 
